From US20060264347A1, “Antimicrobial composition” (priority 2005, published 2006)

Experiments:
C. albican = experiment: In vitro antimicrobial efficacy, viable plate count after 24 hr culture; assay type: cell-based; details: 37° C. 24 hr, inoculum 10^6 CFU/ml
Method: (§1) The synergistic antimicrobial efficacy of the LAE and diiodomethyl-p-tolylsulfone ([…]) antimicrobial composition is illustrated by the results shown in Tables 1 and 2, and was determined by the following protocol. […] Sequential dilutions of the above two stock solutions were then prepared in sterile saline. […] Controls contained similar amounts of saline in the test culture with no LAE or […]. The test cultures were incubated at 37° C. for 24 hr, the total viable bacteria were numerated by plate count on Trypticase® soy agar (BBL) containing inactivating agent. The plates were incubated at 37° C. for 48 hr and reported as colony forming unit/ml (CFU/ml).

P. aeruginosa = experiment: as above; assay type: cell-based; details: 37° C. 24 hr, inoculum 10^6 CFU/ml
Method: as §1

E. faecium = experiment: as above; assay type: cell-based; details: 37° C. 24 hr, inoculum 10^6 CFU/ml
Method: as §1

S. aureus [1] = experiment: as above; assay type: cell-based; details: 37° C. 24 hr, inoculum 10^6 CFU/ml
Method: as §1

E. coli [2] = experiment: as above; assay type: cell-based; details: 37° C. 24 hr, inoculum 10^6 CFU/ml
Method: as §1

C. albicans = experiment: Zone of inhibition assay of coated sutures; assay type: cell-based; details: coated 2-0 polyglactin 910 suture, 37° C. 48 hr
Method: (§2) A series of USP standard size 2-0 uncoated polyglactin 910 sutures were coated with coating compositions containing LAE. LAE stock solution was made in ethanol at the concentration of 10%. The coating solutions were made by dissolving a L(−)lactide/glycolide copolymer containing 65 mole % lactide and 35 mole % glycolide (4.5%) and calcium stearate (4.5%) in ethyl acetate. Then, the LAE stock solution was added to the coating solution at sequential concentrations and mixed thoroughly. The sutures were hand coated by dipping into the coating solution containing antimicrobial composition and then air dried at room temperature for 8 hr. The antimicrobial efficacy was evaluated by zone of inhibition assay, in which the sutures were cut into a 5 cm section and inoculated with about 10^5 cfu/suture in a Petri dish, a portion of 20 ml of TSA tempered at 47° C. was added into the Petri dish. The inoculum was mix thoroughly with the medium and the suture was placed in the middle of the plate. The inoculated plates were incubated at 37° C. for 48 hr and then the zone of inhibition was measured with a digital caliper.
as §2, with “DIMPTS. DIMPTS” for “LAE. LAE”, “DIMPTS” for “LAE”

S. aureus [3] = experiment: Zone of inhibition assay of coated sutures; assay type: cell-based; details: coated 2-0 polyglactin 910 suture, 37° C. 48 hr
Method: as §2
as §2, with “DIMPTS. DIMPTS” for “LAE. LAE”, “DIMPTS” for “LAE”
(§3) A series of USP standard size 2-0 uncoated polyglactin 910 sutures were coated with coating compositions containing the combinations of LAE and DIMPTS. DIMPTS and LAE stock solutions were made in ethanol at concentration of 10%. The coating solutions were made by dissolving a L(−)lactide/glycolide copolymer containing 65 mole % lactide and 35 mole % glycolide (4.5%) and calcium stearate (4.5%) in ethyl acetate. Then, the DIMPTS and LAE stock solutions were added to the coating solution at sequential concentrations and mixed thoroughly. The sutures were hand coated by dipping into the coating solution containing antimicrobial composition and then air dried at room temperature for 8 hr. The antimicrobial efficacy and synergistic effect were evaluated by zone of inhibition assay, in which the sutures were cut into a 5 cm section and inoculated with about 10^5 cfu/suture in a Petri dish, a portion of 20 ml of TSA tempered at 47° C. was added into the Petri dish. The inoculum was mix thoroughly with the medium and the suture was placed in the middle of the plate. The inoculated plates were incubated at 37° C. for 48 hr and then the zone of inhibition was measured with a digital caliper.

E. coli [4] = experiment: Zone of inhibition assay of coated sutures; assay type: cell-based; details: coated 2-0 polyglactin 910 suture, 37° C. 48 hr
Method: as §2
A series of USP standard size 2-0 uncoated polyglactin 910 sutures were coated with coating compositions containing DIMPTS. DIMPTS stock solution was made in ethanol at the concentration of 10%. The coating solutions were made by dissolving a L(−)lactide/glycolide copolymer containing 65 mole % lactide and 35 mole % glycolide (4.5%) and calcium stearate (4.5%) in ethyl acetate. Then, the DIMPTS stock solution was added to the coating solution at sequential concentrations and mixed thoroughly. The sutures were hand coated by dipping into the coating solution containing antimicrobial composition and then air dried at room temperature for 8 hr. The antimicrobial efficacy was evaluated by zone of inhibition assay, in which the sutures were cut into a 5 cm section and inoculated with about 10^5 cfu/suture in a Petri dish, a portion of 20 ml of TSA tempered at 47° C. was added into the Petri dish. The inoculum was mix thoroughly with the medium and the suture was placed in the middle of the plate. The inoculated plates were incubated at 37° C. for 48 hr and then the zone of inhibition was measured with a digital caliper.
as §3

[5] = rats; cited from earlier work
[6] = animals and humans; cited from earlier work

Cc1ccc(S(=O)(=O)C(I)I)cc1 [DIMPTS, diiodomethyl-p-tolylsulfone]
CFU/ml (C. albican; 0.5 ppm): 1 × 10^8 CFU/ml | CFU/ml (P. aeruginosa; 10 ppm): 1.0 × 10^9 CFU/ml | CFU/ml (P. aeruginosa; 200 ppm): 4 × 10^8 CFU/ml | CFU/ml (E. faecium; 0.5 ppm): 6 × 10^8 CFU/ml | CFU/ml (E. faecium; 5 ppm): 3 × 10^8 CFU/ml | CFU/ml (S. aureus [1]; 0.5 ppm): 1.2 × 10^9 CFU/ml | CFU/ml (S. aureus [1]; 5 ppm): 2.4 × 10^6 CFU/ml | CFU/ml (E. coli [2]; 10 ppm): 1.4 × 10^9 CFU/ml | CFU/ml (E. coli [2]; 200 ppm): 1.1 × 10^5 CFU/ml | Zone of inhibition (mm) (C. albicans; 0.1% in coating solution): 3.3 mm | Zone of inhibition (mm) (C. albicans; 0.5% in coating solution): 3.6 mm | Zone of inhibition (mm) (C. albicans; 1% in coating solution): 8.4 mm | Zone of inhibition (mm) (S. aureus [3]; 0.1% in coating solution): 0 mm | Zone of inhibition (mm) (S. aureus [3]; 0.5% in coating solution): 3.0 mm | Zone of inhibition (mm) (S. aureus [3]; 1% in coating solution): 4.3 mm | Zone of inhibition (mm) (E. coli [4]; 0.1% in coating solution): 0 mm | Zone of inhibition (mm) (E. coli [4]; 0.5% in coating solution): 0 mm | Zone of inhibition (mm) (E. coli [4]; 1% in coating solution): 1.0 mm

CCCCCCCCCCCC(=O)N[C@@H](CCCN=C(N)N)C(=O)OCC.Cl [LAE, ethyl ester of the lauramide of the arginine monohydrochloride]
CFU/ml (C. albican; 10 ppm): 6 × 10^7 CFU/ml | CFU/ml (P. aeruginosa; 10 ppm): 1.2 × 10^9 CFU/ml | CFU/ml (E. faecium; 10 ppm): 5 × 10^7 CFU/ml | CFU/ml (S. aureus [1]; 10 ppm): 1.1 × 10^9 CFU/ml | CFU/ml (E. coli [2]; 10 ppm): 1.1 × 10^9 CFU/ml | absorption and metabolism [5]: fast absorption and metabolism into naturally-occurring amino acids and the lauric acid | Zone of inhibition (mm) (C. albicans; 0.5% in coating solution): 0 mm | Zone of inhibition (mm) (C. albicans; 1% in coating solution): 2.3 mm | Zone of inhibition (mm) (C. albicans; 2% in coating solution): 3.5 mm | toxicity [6]: completely harmless | Zone of inhibition (mm) (S. aureus [3]; 0.5% in coating solution): 0 mm | Zone of inhibition (mm) (S. aureus [3]; 1% in coating solution): 1.5 mm | Zone of inhibition (mm) (S. aureus [3]; 2% in coating solution): 3.2 mm | Zone of inhibition (mm) (E. coli [4]; 0.5% in coating solution): 0 mm | Zone of inhibition (mm) (E. coli [4]; 1% in coating solution): 1.0 mm | Zone of inhibition (mm) (E. coli [4]; 2% in coating solution): 2.0 mm
